According to patent US20240376085A1 (Janssen Pharmaceutica NV, priority 2021, published 2024):

Tests used:
[1] = target: T1, IL-17A : IL-17RA binding (Homo sapiens, UniProt Q16552, K93Q); assay: IL-17A(FLAG-tagged):IL-17RA(His-tagged) binding disruption Eu-HTRF assay, Protocol 1; conditions: FLAG-IL-17A 2.5 nM at 2x final concentration; average if tested more than once
T1 construct: Name: IL-17A-Flag
How it was run: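 IC50 came from a one-site competition fit of the acceptor/donor (665/620 nm) HTRF ratio. His-tagged IL-17RA, Eu-anti-FLAG and D2-anti-His were added after a 1 h rt compound preincubation with FLAG-tagged IL-17A dimer in PBS/0.01% Triton X-100, followed by 2 h at rt before reading.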

[2] = test system: IL-17A-induced G-CSF production in human normal keratinocyte (NHK); assay: NHK assay: IL-17A-induced G-CSF production in normal human keratinocytes; format: cell-based; conditions: 24 h, IL-17A 5 ng/mL, average if tested more than once
How it was run: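 Compound titrations are first mixed with recombinant human IL-17A for 1 h at room temperature. The mixture goes onto adult normal human keratinocytes (final IL-17A 5 ng/mL, 5% FBS, 0.2% DMSO) for 24 h at 37 °C. Secreted G-CSF is then measured by HTRF and IC50 fitted.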

T1 sequence (Q16552 with tags, fused parts or gaps K93Q): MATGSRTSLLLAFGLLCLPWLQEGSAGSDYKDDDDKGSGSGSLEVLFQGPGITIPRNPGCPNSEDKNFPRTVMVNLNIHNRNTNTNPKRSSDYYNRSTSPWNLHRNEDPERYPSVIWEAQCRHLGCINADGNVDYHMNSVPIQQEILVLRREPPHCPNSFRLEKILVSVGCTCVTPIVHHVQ

| IC50 [1] | Structure (SMILES) | IC50 ([2]; Homo sapiens, Keratinocyte) | IC50 [2] |
| --- | --- | --- | --- |
| 50 to 100 nM | CC(C)n1nccc1C(=O)N[C@H](c1nc2ccc([C@H](NC(=O)CC3CC(F)(F)C3)C3CC3)cc2[nH]1)[C@@H]1CCCCO1 (relative stereo) [Example 250, N—((R*)-(6-((R)-Cyclopropyl(2-(3,3-difluorocyclobutyl)acetamido)methyl)-1H-benzo[d]imidazol-2-yl)((S*)-tetrahydro-2H-pyran-2-yl)methyl)-1-isopropyl-1H-pyrazole-5-carboxamide] | 50 to 100 nM |  |
| > 100 nM | CCc1nonc1C(=O)N[C@@H](CC(C)(C)C(F)(F)F)c1nc2cc([C@@H](NC(=O)CCC(F)(F)F)C3CC3)ccc2[nH]1 (relative stereo) [Example 189, N—((S*)-1-(5-((S*)-Cyclopropyl(4,4,4-trifluorobutanamido)methyl)-1H-benzo[d]imidazol-2-yl)-4,4,4-trifluoro-3,3-dimethylbutyl)-4-ethyl-1,2,5-oxadiazole-3-carboxamide] | > 100 nM |  |
| > 100 nM | C[C@@H](NC(=O)CCC(F)(F)F)c1ccc2[nH]c([C@@H](NC(=O)c3ccnn3C)C3CCC(F)(F)CC3)nc2c1 [Example 118, N—((S)-(4,4-Difluorocyclohexyl)(5-((R)-1-(4,4,4-trifluorobutanamido)ethyl)-1H-benzo[d]imidazol-2-yl)methyl)-1-methyl-1H-pyrazole-5-carboxamide] | 50 to 100 nM |  |
| < 50 nM | CC(C)(C[C@H](NC(=O)c1nonc1C1CC1)c1nc2ccc([C@H](NC(=O)CCC(F)F)C3CC3)cc2[nH]1)C(F)(F)F [Example 185, 4-Cyclopropyl-N—((S)-1-(6-((R)-cyclopropyl(4,4-difluorobutanamido)methyl)-1H-benzo[d]imidazol-2-yl)-4,4,4-trifluoro-3,3-dimethylbutyl)-1,2,5-oxadiazole-3-carboxamide] | > 100 nM |  |

The next lines start with the molecule.

| Structure (SMILES) | IC50 [1] | IC50 ([2]; Homo sapiens, Keratinocyte) | IC50 [2] |
| --- | --- | --- | --- |
| C[C@@H](NC(=O)CCC(F)(F)F)c1ccc2[nH]c([C@@H](NC(=O)[C@@H]3C[C@@H]3C#N)C3CCC(F)(F)CC3)nc2c1 [Example 102, cis-(1,2)-2-Cyano-N—((S)-(4,4-difluorocyclohexyl)(5-((R)-1-(4,4,4-trifluorobutanamido)ethyl)-1H-benzo[d]imidazol-2-yl)methyl)cyclopropane-1-carboxamide] | > 100 nM | > 100 nM |  |
| C[C@@H](NC(=O)CCC(F)(F)F)c1ccc2nc([C@@H](NC(=O)c3cnn(C)c3C(F)F)C3CCC(F)(F)CC3)[nH]c2c1 [Example 59, N—((S)-(4,4-Difluorocyclohexyl)(6-((R)-1-(4,4,4-trifluorobutanamido)ethyl)-1H-benzo[d]imidazol-2-yl)methyl)-5-(difluoromethyl)-1-methyl-1H-pyrazole-4-carboxamide] | > 100 nM | > 100 nM |  |
| C[C@@H](NC(=O)CCC(F)(F)F)c1ccc2[nH]c([C@@H](NC(=O)[C@H]3C[C@@H]3C#N)C3CCC(F)(F)CC3)nc2c1 (relative stereo) [Example 103, trans-(1S*,2S*)-2-Cyano-N—((S)-(4,4-difluorocyclohexyl)(5-((R)-1-(4,4,4-trifluorobutanamido)ethyl)-1H-benzo[d]imidazol-2-yl)methyl)cyclopropane-1-carboxamide] | > 100 nM | > 100 nM |  |
| Cc1c(C(=O)N[C@H](c2nc3cc([C@@H](C)NC(=O)CCC(F)(F)F)ccc3[nH]2)C2CCC(F)(F)CC2)cnn1CCC#N [Example 17, 1-(2-Cyanoethyl)-N—[(S)-(4,4-difluorocyclohexyl)-[6-[(1R)-1-(4,4,4-trifluorobutanoylamino)ethyl]-1H-benzimidazol-2-yl]methyl]-5-methyl-pyrazole-4-carboxamide] | > 100 nM | > 100 nM |  |
| Cn1nccc1C(=O)N[C@H](c1nc2cc(C(CC3CCC3)NC(=O)CCC(F)(F)F)ccc2[nH]1)C1CCC(F)(F)CC1 (single isomer, unassigned) [Example 47, N—((S)-(5-((R*)-2-Cyclobutyl-1-(4,4,4-trifluorobutanamido)ethyl)-1H-benzo[d]imidazol-2-yl)(4,4-difluorocyclohexyl)methyl)-1-methyl-1H-pyrazole-5-carboxamide] | > 100 nM |  | < 50 nM |
